pEC50, pIC50: −log10 of the molar value. Entries after “also recorded” stand apart in the source; their conditions may differ.
Tests used:
[1] = system: 1321N1 astrocytoma cells; assay: [Ca2+]i response before and after UV uncaging, fluo-3; format: cell-based; conditions: for [Ca2+]i response after uncaging of IP3-CPM: Ca2+ free medium
Procedure: (b) Same experiment as (a) except done in Ca^2+ free medium (DPBS, O Ca^2+, 0.5 mM EGTA). UV exposure of the cells treated with IP3 -CPM still gave the same response, showing that the [Ca^2+ ]i increase resulted from the release of Ca^2+ from internal stores. […] The cells were loaded with fluo-3/AM. During the experiment the cells were bathed in HBS buffered with 20 mM Hepes at pH 7.4 and supplemented with 2 g/L glucose.
The [Ca^2+ ]i was monitored using the calcium indicator fluo-3 rather than fura-2 to keep the excitation wavelength of the indicator (490 nm) far from the uncaging wavelength (360 nm) of DMNB group. […] Compared to the photolyzing set-up (direct illumination by a hand mercury lamp) used for the IP3 -binding assay, the optical throughput from the source lamp to the specimen is much higher in a microscope, so 10 seconds (as opposed to 2 hours in IP3 binding assay) of photolysis was sufficient to produce enough IP3 to elicit [Ca^2+ ]i increase. The same amount of UV alone had no effect at all on [Ca^2+ ]i in cells not treated with IP3 -CPM. After recovering from uncaging of IP3 -CPM, the cells responded to subsequent carbachol and thapsigargin stimulation normally.
This confirmed that the [Ca^2+ ]i increase due to uncaging of IP3 -CPM resulted from internal Ca^2+ release, which was consistent with the normal mechanism of IP3 action.

[2] = system: 1321N1 astrocytoma cells; assay: as above; format: cell-based; conditions: with extracellular Ca2+, carbachol 200 μM, thapsigargin 100 nM, ionomycin 5 μM
[3] = system: intestinal cell line T84; assay: cells; format: cell-based; conditions: 0.2 h; T84, ISC 12 min after addition; read-out: EC50 (chloride secretion)
Text: A convenient test system is the intestinal cell line T84, in which chloride secretion can be continuously monitored by mounting confluent monolayers of cells in Ussing chambers (42).

[4] = target: T1, IP3 receptor (IP3 R) (Bos taurus, UniProt Q9TU34); assay: [3H]IP3 binding assay, bovine cerebellum microsomal fractions; conditions: for affinity to IP3 R / binding to cerebellar microsomes (in words): without photolysis
T1 construct: from tissue; host or cells: bovine cerebellum microsomal fractions
Procedure: Bovine cerebellum microsomal fractions, which are a rich source of IP3 binding protein, were prepared and used for [^3 H]IP3 binding assay. […] The IC50 of D-IP3 was about 8 nM.
At this point, the crude photolysis product from 100 pmol V-16 was equivalent in binding activity to 32 pmol of authentic IP3. […] The absolute stereochemistry of V-3 and its diastereomer was thus assigned.

[5] = system: phosphatase; assay: Intracellular retention and metabolic (phosphatase) stability; format: in vitro ADME
Procedure: In human embryonic kidney cells (HEK cells), the extracellular IP3 -CPM was washed away after the cells had been loaded with 50 μM of IP3 -CPM for 20 minutes. […] Cells in the same dish which had not been exposed to UV light were kept in the dark for over 6 hours. […] However, pretreatment of IP3 -CPM with acetic acid will unmask the 3-hydroxyl and enable the intracellular phosphorylation of delivered IP3.

[6] = system: 1321N1 astrocytoma cells; assay: Cytosolic free Ca2+ imaging, fura-2; format: cell-based
Procedure: Biological tests on 1321N1 astrocytoma cells were performed similarly to the tests on REF-52 cells (71). The concentration of Cytosolic free Ca^2+ (ordinate, in units of μM) in fura-2-loaded 1321N1 astrocytoma cells is shown as a function of time (abscissa, in units of seconds). At the dotted vertical line labeled 1, 20 μM inositol-1,4,5-triphosphate propionyloxymethyl ester (5a, R=Et, R'=H) was added. […] Subsequently the cells could respond to carbachol (200 μM, delivered at the dotted vertical line labeled 2), a drug that stimulates the endogenous generation of inositol-1,4,5-triphosphate. However, the response to carbachol is depressed by the prior treatment with the inositol-1,4,5-triphosphate propionyloxymethyl ester. Likewise the Ca^2+ response to thapsigargin (100 nM, delivered at the dotted vertical line labeled 3), another drug that releases stored Ca^2+, is depressed.
A test similar to the one shown in FIG. 7 was conducted except that the medium lacked extracellular Ca^2+ and a dose of 60 μM inositol-1,4,5-triphosphate propionyloxymethyl ester was added at the dotted vertical line labeled 1. […] Because no extracellular Ca^2+ was present, this response must have represented release from intracellular Ca^2+ stores. […] The much greater degree of inhibition of the carbachol response compared to the previous example (FIG. 7) is due to the higher dose of the inositol-1,4,5-triphosphate propionyloxymethyl ester and the absence of extracellular Ca^2+, which reduces refilling of Ca^2+ stores.
In a further example, the same test as set forth above was conducted with astrocytoma cells, except that 2 μM inositol-1,4,5-triphosphate butyryloxymethyl ester (5a, R=Pr, R'=H) was used instead of the propionyloxymethyl ester.

[7] = system: REF-52 fibroblasts; assay: Cytosolic free Ca2+ imaging, fura-2; format: cell-based
Procedure: The best-established biological effect of IP3 is to release Ca^2+ from internal stores (26), so IP3 /PM (5a, R=Et, R'=H) was tested by imaging cytosolic free Ca^2+ levels in single REF-52 fibroblasts using standard methodology (58). Cells were loaded with the Ca^2+ -indicator fura-2 and viewed by fluorescence excitation ratioing. IP3 /PM (40 μM) was applied extracellularly while monitoring cytosolic Ca^2+ concentrations.

[8] = system: P388D1 macrophage-like cells; assay: [Ca2+]i response before and after UV uncaging, fluo-3; format: cell-based; conditions: PAF 100 nM, ionomycin 5 μM
Procedure: The cells were loaded with fluo-3/AM. During the experiment the cells were bathed in HBS buffered with 20 mM Hepes at pH 7.4 and supplemented with 2 g/L glucose.
Another example was carried out in P388D1 macrophage-like cells.
Studies by Asmis et al. (92) have shown that, in P388D1 macrophage-like cells, PAF stimulated PGE2 production is mediated through two separate signals: IP3 induced [Ca^2+ ]i increase and another unidentified signal. IP3 -CPM might serve as a new tool for detailed study of PGE2 formation and AA release in relation to IP3 and [Ca^2+ ]i in these cells. One of the major advantages of using permeant IP3 derivatives is that experiments can be easily carried out in a population of cells, which is required for the measurement of AA release and PGE2 formation.

[9] = 20 μM compound, with extracellular Ca2+

T1 sequence (Q9TU34 whole entry): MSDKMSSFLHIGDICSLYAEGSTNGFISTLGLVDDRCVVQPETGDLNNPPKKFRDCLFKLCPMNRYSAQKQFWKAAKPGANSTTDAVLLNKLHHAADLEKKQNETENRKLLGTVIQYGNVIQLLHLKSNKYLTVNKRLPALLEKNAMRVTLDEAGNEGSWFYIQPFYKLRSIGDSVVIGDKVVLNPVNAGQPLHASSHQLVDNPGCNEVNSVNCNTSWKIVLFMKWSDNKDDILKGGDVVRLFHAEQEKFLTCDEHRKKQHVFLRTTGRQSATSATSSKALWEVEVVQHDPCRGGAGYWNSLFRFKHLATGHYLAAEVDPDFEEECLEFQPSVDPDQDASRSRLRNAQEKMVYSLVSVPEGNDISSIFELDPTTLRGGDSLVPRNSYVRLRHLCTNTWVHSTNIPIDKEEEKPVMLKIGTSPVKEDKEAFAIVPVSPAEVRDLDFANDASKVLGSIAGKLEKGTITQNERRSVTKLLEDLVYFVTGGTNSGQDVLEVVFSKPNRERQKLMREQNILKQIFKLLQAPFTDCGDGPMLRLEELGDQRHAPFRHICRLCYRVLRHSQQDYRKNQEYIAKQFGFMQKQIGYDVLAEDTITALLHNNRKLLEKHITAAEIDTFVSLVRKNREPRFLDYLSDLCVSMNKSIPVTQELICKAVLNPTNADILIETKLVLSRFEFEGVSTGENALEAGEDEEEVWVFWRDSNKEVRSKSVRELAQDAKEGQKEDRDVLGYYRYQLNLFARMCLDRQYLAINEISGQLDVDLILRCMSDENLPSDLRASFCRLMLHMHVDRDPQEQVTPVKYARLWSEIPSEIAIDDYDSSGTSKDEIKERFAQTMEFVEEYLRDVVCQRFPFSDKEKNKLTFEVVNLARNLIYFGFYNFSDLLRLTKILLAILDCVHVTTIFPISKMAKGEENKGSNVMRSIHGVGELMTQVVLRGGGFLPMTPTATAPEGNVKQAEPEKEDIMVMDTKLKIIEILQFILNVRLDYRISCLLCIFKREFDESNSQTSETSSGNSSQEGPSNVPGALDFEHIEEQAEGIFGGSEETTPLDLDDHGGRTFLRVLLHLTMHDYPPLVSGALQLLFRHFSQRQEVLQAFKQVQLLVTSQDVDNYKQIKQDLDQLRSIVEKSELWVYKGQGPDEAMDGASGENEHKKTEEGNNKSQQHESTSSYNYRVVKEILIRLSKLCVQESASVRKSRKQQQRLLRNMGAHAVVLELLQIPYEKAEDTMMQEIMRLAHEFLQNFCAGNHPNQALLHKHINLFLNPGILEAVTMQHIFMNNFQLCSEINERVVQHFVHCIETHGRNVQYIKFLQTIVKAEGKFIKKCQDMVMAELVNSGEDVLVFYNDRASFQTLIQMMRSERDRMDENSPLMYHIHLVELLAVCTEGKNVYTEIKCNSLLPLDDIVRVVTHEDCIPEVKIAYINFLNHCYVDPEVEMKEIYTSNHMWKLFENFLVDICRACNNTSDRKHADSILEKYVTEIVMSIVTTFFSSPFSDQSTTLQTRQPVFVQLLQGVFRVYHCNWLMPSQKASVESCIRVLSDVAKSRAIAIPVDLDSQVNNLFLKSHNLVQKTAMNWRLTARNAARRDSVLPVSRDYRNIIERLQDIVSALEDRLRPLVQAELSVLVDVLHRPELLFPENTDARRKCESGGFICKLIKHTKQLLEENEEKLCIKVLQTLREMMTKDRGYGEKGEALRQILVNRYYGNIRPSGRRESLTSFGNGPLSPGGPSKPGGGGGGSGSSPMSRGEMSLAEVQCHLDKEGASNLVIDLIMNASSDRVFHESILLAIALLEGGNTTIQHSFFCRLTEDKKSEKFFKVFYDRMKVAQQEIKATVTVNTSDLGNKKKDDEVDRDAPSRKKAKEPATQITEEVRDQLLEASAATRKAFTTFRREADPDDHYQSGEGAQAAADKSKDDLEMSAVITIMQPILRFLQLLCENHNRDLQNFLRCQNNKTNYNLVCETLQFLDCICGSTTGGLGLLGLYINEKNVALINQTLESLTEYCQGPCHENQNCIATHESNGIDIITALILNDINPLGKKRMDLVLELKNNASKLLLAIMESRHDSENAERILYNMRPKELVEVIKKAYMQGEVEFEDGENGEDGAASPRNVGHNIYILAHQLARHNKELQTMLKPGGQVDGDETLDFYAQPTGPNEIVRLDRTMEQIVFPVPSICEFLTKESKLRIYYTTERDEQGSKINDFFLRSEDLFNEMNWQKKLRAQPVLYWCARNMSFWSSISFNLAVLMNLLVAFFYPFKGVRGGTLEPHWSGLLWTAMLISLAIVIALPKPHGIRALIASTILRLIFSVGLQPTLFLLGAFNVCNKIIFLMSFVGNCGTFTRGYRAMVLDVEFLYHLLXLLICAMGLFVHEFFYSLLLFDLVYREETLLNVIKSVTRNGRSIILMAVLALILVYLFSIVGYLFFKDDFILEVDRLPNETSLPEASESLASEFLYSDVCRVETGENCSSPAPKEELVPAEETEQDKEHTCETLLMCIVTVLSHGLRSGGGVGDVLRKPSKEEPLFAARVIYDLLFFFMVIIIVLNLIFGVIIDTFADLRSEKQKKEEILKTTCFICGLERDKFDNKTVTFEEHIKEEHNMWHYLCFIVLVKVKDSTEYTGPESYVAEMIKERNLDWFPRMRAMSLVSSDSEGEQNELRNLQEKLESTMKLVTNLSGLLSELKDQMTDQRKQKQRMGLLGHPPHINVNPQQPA

C[N+](C)(C)CCOC(N)=O [Carbachol]
[Ca2+]i response after uncaging of IP3-CPM [1]: able to cause further Ca^2+ release
[Ca2+]i response after recovery from uncaging of IP3-CPM [2]: normal response
[Ca2+]i response after recovery from uncaging of IP3-CPM ([2]; listed as carbachol): normally

Nc1ncnc2c1nc(Sc1ccc(Cl)cc1)n2[C@@H]1O[C@@H]2COP(=O)(O)O[C@H]2[C@H]1O [Compound 8-pCPT-cAMP, 8-para-chlorophenylthio (cCPT) cAMP, reference compound]
pEC50 [3]: 4.00

COc1cc(CO[C@@H]2[C@@H](OP(=O)(O)O)[C@H](OP(=O)(O)O)[C@H]3OC(OC)O[C@H]3[C@H]2OP(=O)(O)O)c([N+](=O)[O-])cc1OC (stereo partly drawn) [Compound V-16, D-2,3-O-methoxymethylene-6-O-(4,5-dimethoxy-2-nitrobenzyl)-myo-inositol 1,4,5-trisphosphate]
releasing Ca2+ without photolysis ([1]; caged IP3 analog released inside cells): inactive in releasing Ca^2+
amount of authentic IP3 equivalent in binding activity to crude photolysis product from 100 pmol V-16 ([4]; after about 2 h photolysis): 32 pmol
binding to the receptor upon photolysis ([4]; photolysis at 366 nm): UV-dose-dependent increase of binding
time at which binding leveled off on photolysis ([4]; photolysis at 366 nm): about 2 hours
affinity to IP3 R / binding to cerebellar microsomes (in words) [4]: negligible binding
phosphatase degradation / metabolic stability (in words) ([5]; in cells): metabolically fairly stable; also recorded: fairly resistant to phosphatase degradation
retention in cells (in words) ([5]; in cells): well retained in cells; also recorded: could be trapped inside cells for a long period of time without losing much of its activity

COC1O[C@@H]2[C@@H](OP(=O)(O)O)[C@H](OP(=O)(O)O)[C@@H](O)[C@H](OP(=O)(O)O)[C@@H]2O1 (stereo partly drawn) [D-2,3-methoxymethylene-myo-inositol 1,4,5-trisphosphate]
internal Ca2+ release upon photolysis (in words) ([1]; photolysis product of V-16 in cells): induced internal Ca^2+ release
affinity for IP3 receptor, fold weaker than IP3 ([4]; assuming 100% chemical yield of uncaged product): 3 fold
affinity to IP3 R relative to IP3 ([4]; photolysis product): at least one third
phosphorylation into 1,3,4,5-IP4 (in words) [5]: can not be phosphorylated into 1,3,4,5-IP4

O=P(O)(O)O[C@@H]1[C@H](O)[C@H](O)[C@@H](OP(=O)(O)O)[C@H](OP(=O)(O)O)[C@H]1O [D-IP3, myo-inositol 1,4,5-triphosphate, reference compound]
pIC50 ([4]; cerebellar microsomes, read-out: IC50, inhibition of [3H]IP3 binding): ~8.10

COc1cc(CO[C@@H]2[C@@H](OP(=O)(OCOC(C)=O)OCOC(C)=O)[C@H](OP(=O)(OCOC(C)=O)OCOC(C)=O)[C@H]3OC(OC)O[C@H]3[C@H]2OP(=O)(OCOC(C)=O)OCOC(C)=O)c([N+](=O)[O-])cc1OC (stereo partly drawn) [IP3 -CAM, D-2,3-O-methoxymethylene-6-O-(4,5-dimethoxy-2-nitrobenzyl)-myo-inositol 1,4,5-trisphosphate hexakis(acetoxymethyl)ester]
incubation time required ([1]; astrocytes, response similar to IP3-CPM): more than 15 minutes

CCCC(=O)OCOP(=O)(OCOC(=O)CCC)O[C@@H]1[C@H](O)[C@H](O)[C@@H](OP(=O)(OCOC(=O)CCC)OCOC(=O)CCC)[C@H](OP(=O)(OCOC(=O)CCC)OCOC(=O)CCC)[C@H]1O [IP3 /BM, D-myo-inositol-1,4,5-triphosphate butyryloxymethyl ester]
Ca2+ elevation, potency compared with propionyloxymethyl ester ([6]; 2 μM, with extracellular Ca2+): somewhat more potent
time course compared with propionyloxymethyl ester ([6]; 2 μM, with extracellular Ca2+): slower to appear and decay

CCC(=O)OCOP(=O)(OCOC(=O)CC)O[C@@H]1[C@H](O)[C@H](O)[C@@H](OP(=O)(OCOC(=O)CC)OCOC(=O)CC)[C@H](OP(=O)(OCOC(=O)CC)OCOC(=O)CC)[C@H]1O [IP3 /PM, D-myo-inositol-1,4,5-triphosphate propionyloxymethyl ester]
effect of subsequent vasopressin after compound ([7]; REF-52, 40 μM compound): much less effect than normal
cytosolic Ca2+ concentration ([7]; REF-52, 40 μM extracellular): increased rapidly
Ca2+ release from internal stores (in words) ([7]; intact REF-52 fibroblasts and astrocytoma cells): released Ca^2+ from internal stores
response to subsequent carbachol (200 μM) [6, 9]: depressed
response to subsequent thapsigargin (100 nM) [6, 9]: depressed
delay of Ca2+ elevation ([6]; 20 μM, with extracellular Ca2+): about 100 second
elevation of cytosolic Ca2+ ([6]; 20 μM, with extracellular Ca2+): sizable elevation of cytosolic Ca^2+
response to subsequent carbachol (200 μM) ([6]; 60 μM compound, no extracellular Ca2+): greatly depressed
delay of Ca2+ elevation ([6]; 60 μM, no extracellular Ca2+): ~50 s
elevation of cytosolic Ca2+ ([6]; 60 μM, no extracellular Ca2+): sizable elevation of cytosolic Ca^2+

C[C@H](CCC(=O)O)C[C@H](C)C[C@H](C)C(=O)/C=C(\O)[C@H](C)C[C@H](C)C/C=C/[C@@H](C)[C@@H](O)[C@@H](C)[C@@H](O)C[C@@H]1CC[C@@](C)([C@H]2CC[C@@](C)([C@@H](C)O)O2)O1 [Ionomycin, reference compound]
[Ca2+]i response after uncaging of IP3-CPM [1]: small and transient [Ca^2+ ]i increase; also recorded: additional small [Ca^2+ ]i increase
[Ca2+]i response after uncaging of IP3-CPM [8]: huge [Ca^2+ ]i increase
[Ca2+]i response after recovery from uncaging of IP3-CPM [2]: further raised [Ca^2+ ]i to a saturating level; also recorded: huge [Ca^2+ ]i increase

O=P(O)(O)O[C@@H]1[C@@H](O)[C@H](OP(=O)(O)O)[C@@H](OP(=O)(O)O)[C@H](O)[C@@H]1O [L-IP3, reference compound]
affinity to IP3 R / binding to cerebellar microsomes (in words) [4]: negligible affinity

CCCCCCCCCCCCCCCCOC[C@H](COP(=O)([O-])OCC[N+](C)(C)C)OC(C)=O [PAF, reference compound]
[Ca2+]i response after uncaging of IP3-CPM [8]: smaller [Ca^2+ ]i increase; also recorded: attenuated response

C/C=C(/C)C(=O)O[C@H]1C(C)=C2[C@H]([C@@H]1OC(=O)CCCCCCC)[C@@](C)(OC(C)=O)C[C@H](OC(=O)CCC)[C@@]1(O)[C@H]2OC(=O)[C@@]1(C)O [thapsigargin]
[Ca2+]i response after uncaging of IP3-CPM [1]: able to cause further Ca^2+ release
[Ca2+]i response after recovery from uncaging of IP3-CPM [2]: normally; also recorded: normal response

From patent US5866548A, “Caged membrane-permeant inositol phosphates” (priority 1996, dated 1999)
